Measured values reported in patent US7056947B2, “Aza-peptide epoxides” (Georgia Tech Research Corp., priority 2002, dated 2006).

How the values were obtained:
Assay type in all cases: biochemical
[1] = target: dipeptidyl peptidase I (DPPI, cathepsin C) (Homo sapiens, UniProt P53634); assay: Inhibition of DPPI
[2] = target: T1, papain (Carica papaya, UniProt P00784); assay: Inhibition of papain, incubation method; details: second-order rate constant, NI = no inhibition; for kinact/KI: pH 7.5, read-out: kobs/[I] papain
T1 sequence (P00784 134-345): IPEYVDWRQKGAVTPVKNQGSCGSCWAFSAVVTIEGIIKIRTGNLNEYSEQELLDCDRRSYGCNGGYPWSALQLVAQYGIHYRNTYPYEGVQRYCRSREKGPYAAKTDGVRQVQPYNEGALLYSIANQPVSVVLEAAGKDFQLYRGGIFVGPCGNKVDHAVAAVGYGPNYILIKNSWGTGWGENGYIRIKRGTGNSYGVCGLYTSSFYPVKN
How it was run: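 Incubation-method inactivation: plots of ln vt/vo against time gave pseudo-first-order rate constants. Activity monitored at 405 nm with Z-Phe-Arg-pNA substrate (53.7 μM); papain at about 0.29 mg/mL in pH 7.5 Hepes (50 mM) containing DTT and EDTA (2.5 mM each).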

[3] = target: cathepsin B (Homo sapiens, UniProt P07858); assay: Inhibition of cathepsin B, incubation method; details: second-order rate constant, NI = no inhibition; for kinact/KI: pH 6, read-out: kobs/[I] cathepsin B
Text: The release of 7-amino-4-methylcoumarin was monitored (λex=360 nm, λem=465 nm) using a Tecan Spectra Fluor microplate reader. Pseudo first-order inactivation rate constants were obtained from plots of In vt/vo versus time.

[4] = target: T2, schistosome legumain SmAE (Schistosoma mansoni asparaginyl endopeptidase) (Schistosoma mansoni, UniProt P09841, N192C, form not given); assay: Schistosome legumain (SmAE) IC50 assay; details: read-out: Schistosome Legumain IC50; preincubated 20 minutes at room temperature, substrate Cbz-Ala-Ala-Asn-AMC; NI = no inhibition
T2 sequence (P09841 1-429 N192C): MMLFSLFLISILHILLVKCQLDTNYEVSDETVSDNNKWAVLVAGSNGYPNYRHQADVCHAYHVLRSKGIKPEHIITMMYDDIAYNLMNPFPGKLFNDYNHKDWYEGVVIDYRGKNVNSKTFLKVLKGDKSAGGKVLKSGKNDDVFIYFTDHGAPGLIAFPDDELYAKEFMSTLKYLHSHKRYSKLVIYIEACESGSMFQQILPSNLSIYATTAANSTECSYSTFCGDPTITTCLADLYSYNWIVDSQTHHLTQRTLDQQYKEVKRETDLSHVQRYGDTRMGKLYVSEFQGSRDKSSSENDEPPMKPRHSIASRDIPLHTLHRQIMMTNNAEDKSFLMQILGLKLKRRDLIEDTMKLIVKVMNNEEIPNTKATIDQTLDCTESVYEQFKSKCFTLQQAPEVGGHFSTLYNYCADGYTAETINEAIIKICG
Procedure: Studies with the aza-peptide epoxides using the schistosome legumain SmAE (Schistosoma mansoni asparaginyl endopeptidase) were also performed. The enzymatically pure enzyme (zymogen form) was expressed in Pichia without interference from other proteases (ref FEBS lett 2000 466 244–248 Caffrey). The actual active site enzyme concentration is unknown. The lyophilized enzyme (50–100 mg) was reconstituted in 1.5 mL 0.5 M sodium acetate, pH 4.5 containing 4 mM DTT, and left to stand at 37° C. for 3–4 hours to allow for auto-activation of the zymogen. In a black 96-well microtiter plate, 50 uL of activated enzyme was added to an equal volume of 0.1 M citrate-phosphate buffer pH 6.8 containing 4 mM DTT. Inhibitor stock solutions (20 mM) were prepared in DMSO. Serial dilutions (using water) of inhibitor were added (as 1 uL aliquots) to yield concentrations of between 2 and 0.00002 uM inhibitor. The inhibitors were preincubated with the protease at room temperature for 20 minutes before the assay (IC50s were the same when incubated for only 5 minutes). After incubating various inhibitor concentrations with enzyme, 100 uL of the same buffer containing 20 uM substrate (Cbz-Ala-Ala-Asn-AMC) was added to the wells and the reaction monitored at room temperature with linear kinetics up to 20 minutes. Inhibitors are tested in duplicate. A plot of the RFU/min versus the inhibitor concentration [μM] permitted calculation of an IC50 value and estimation of the kobs/[I].

[5] = target: porcine pepsin (Sus scrofa, UniProt P00791); assay: Aspartyl protease assay, pepsin; details: preincubated 20 minutes, pH 3.5
porcine pepsin, sequence (P00791 60-385): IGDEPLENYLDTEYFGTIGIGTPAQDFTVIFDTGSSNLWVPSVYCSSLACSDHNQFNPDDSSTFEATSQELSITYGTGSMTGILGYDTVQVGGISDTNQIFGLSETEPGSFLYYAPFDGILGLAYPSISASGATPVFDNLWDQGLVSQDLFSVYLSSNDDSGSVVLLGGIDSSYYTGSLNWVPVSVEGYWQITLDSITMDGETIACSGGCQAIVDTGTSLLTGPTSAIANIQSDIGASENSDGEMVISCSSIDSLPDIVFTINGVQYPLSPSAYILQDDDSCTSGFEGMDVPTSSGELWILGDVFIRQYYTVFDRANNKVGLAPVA
Procedure: (§1) Aspartyl Proteases. Assays with the following aspartyl proteases were performed: porcine pepsin, human cathepsin D, plasmepsin 2 (from P. falciparum), and the secreted aspartic proteinase 2 (SAP-2) from Candida albicans. The inhibitors were also assayed with HIV-1 protease. The inhibitors were preincubated for 30 minutes with HIV-1 protease and 20 minutes with the other enzymes. Substrate was then added and the substrate hydrolysis was monitored.

[6] = target: granzyme B (Homo sapiens, UniProt P10144); assay: Granzyme B assay; details: preliminary assays, inhibitor 5 mM stock incubated 1 hour, substrate IETD-pNA
granzyme B, sequence (P10144 21-247, species assumed): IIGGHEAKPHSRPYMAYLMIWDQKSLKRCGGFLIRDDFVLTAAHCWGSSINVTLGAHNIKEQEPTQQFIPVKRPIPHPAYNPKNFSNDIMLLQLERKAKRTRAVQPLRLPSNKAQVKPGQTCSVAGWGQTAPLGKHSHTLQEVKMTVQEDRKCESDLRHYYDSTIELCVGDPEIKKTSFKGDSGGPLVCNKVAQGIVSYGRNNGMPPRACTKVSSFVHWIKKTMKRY
Procedure: Granzyme B. Assays with granzyme B were also performed. In the preliminary assays, the inhibitor (10 μL, 5 mM stock solution in DMSO) was incubated with granzyme B (90 μL) for 1 hour. After the incubation period, to these wells was added IETD-pNA (100 μL) and the rate was monitored at 405 nm.

[7] = target: HIV-1 protease (Human immunodeficiency virus type 1 group M subtype B, UniProt P04585); assay: Aspartyl protease assay, HIV-1 protease; details: preincubated 30 minutes
Procedure: as §1

[8] = target: secreted aspartic proteinase 2 (SAP-2) (Candida albicans, UniProt P0DJ06); assay: Aspartyl protease assay, SAP-2; details: preincubated 20 minutes, pH 4.5
secreted aspartic proteinase 2 (SAP-2), sequence (P0DJ06 57-398): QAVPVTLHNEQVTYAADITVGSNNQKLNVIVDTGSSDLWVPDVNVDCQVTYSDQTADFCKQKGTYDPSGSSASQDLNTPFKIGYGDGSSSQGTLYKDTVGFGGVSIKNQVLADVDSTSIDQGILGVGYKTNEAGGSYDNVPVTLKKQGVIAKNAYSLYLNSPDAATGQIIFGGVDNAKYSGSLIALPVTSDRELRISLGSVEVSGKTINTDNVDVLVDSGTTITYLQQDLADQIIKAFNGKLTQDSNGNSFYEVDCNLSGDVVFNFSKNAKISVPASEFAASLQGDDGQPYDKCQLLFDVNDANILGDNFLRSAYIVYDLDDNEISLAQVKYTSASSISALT
Procedure: as §1

[9] = target: human cathepsin D (Homo sapiens, UniProt P07339); assay: Aspartyl protease assay, cathepsin D; details: preincubated 20 minutes, pH 3.5
human cathepsin D, sequence (P07339 65-412): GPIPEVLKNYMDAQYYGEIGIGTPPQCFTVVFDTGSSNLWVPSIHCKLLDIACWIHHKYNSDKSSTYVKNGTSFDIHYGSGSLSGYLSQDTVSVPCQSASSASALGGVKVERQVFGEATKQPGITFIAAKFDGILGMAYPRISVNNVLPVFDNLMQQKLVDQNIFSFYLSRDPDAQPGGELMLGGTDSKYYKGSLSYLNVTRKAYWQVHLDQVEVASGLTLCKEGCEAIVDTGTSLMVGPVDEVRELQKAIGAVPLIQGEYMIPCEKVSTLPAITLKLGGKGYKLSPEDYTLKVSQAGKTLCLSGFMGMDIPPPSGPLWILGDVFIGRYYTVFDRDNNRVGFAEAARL
Procedure: as §1

[10] = target: plasmepsin 2 (Plasmodium falciparum, UniProt P46925); assay: Aspartyl protease assay, plasmepsin 2; details: preincubated 20 minutes, pH 4.5
plasmepsin 2, sequence (P46925 125-453): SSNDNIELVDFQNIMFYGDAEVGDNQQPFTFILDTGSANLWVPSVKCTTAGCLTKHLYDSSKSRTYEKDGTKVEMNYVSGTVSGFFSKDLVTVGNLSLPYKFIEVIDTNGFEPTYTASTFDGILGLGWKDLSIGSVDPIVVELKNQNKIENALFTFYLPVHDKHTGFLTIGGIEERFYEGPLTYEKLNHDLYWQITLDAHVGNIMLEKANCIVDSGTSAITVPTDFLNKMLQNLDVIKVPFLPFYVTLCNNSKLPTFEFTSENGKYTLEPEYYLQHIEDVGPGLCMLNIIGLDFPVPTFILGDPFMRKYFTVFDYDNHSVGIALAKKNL
Procedure: as §1

dipeptidyl peptidase I (DPPI, cathepsin C), sequence (P53634 25-463, species assumed): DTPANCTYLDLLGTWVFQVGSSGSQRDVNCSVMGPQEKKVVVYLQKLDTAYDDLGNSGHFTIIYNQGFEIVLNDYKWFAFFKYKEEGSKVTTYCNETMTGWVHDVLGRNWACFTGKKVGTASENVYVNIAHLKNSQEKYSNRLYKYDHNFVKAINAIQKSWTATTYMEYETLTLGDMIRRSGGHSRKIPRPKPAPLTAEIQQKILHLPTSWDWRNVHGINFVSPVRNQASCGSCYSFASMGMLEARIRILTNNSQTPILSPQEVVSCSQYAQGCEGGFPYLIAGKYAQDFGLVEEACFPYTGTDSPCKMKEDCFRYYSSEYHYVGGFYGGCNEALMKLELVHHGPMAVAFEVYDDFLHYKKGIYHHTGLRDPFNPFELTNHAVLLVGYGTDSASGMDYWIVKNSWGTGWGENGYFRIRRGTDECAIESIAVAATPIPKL

`CCCC[C@H](NC(=O)OC(C)(C)C)C(=O)NN(CCc1ccccc1)C(=O)[C@@H]1O[C@H]1C(=O)OCC` (relative stereo) [Boc-Nle-AHph-trans-EP-COOEt, trans-3-(N^2-(N-tert-Butoxycarbonylnorleucyl)-N^1-phenylethylhydrazinocarbonyl)oxirane-2-carboxylic Acid Ethyl Ester] was tested, and the kinact/KI ([1]; read-out: kobs/[I] DPPI) was 0.7 M⁻¹ s⁻¹, the kinact/KI [2] was 1.6 M⁻¹ s⁻¹ and the kinact/KI [3] was 1.3 M⁻¹ s⁻¹.

For `CC(NC(=O)OCc1ccccc1)C(=O)NC(C)C(=O)NN(CC(N)=O)C(=O)C1OC1C(=O)NCc1ccccc1` [12d, (2S,3S)-2-(2-Benzylcarbamoyl)-3-(N^2-(N-benzyloxycarbonylalanylalanyl)-N^1-carbamoylmethylhydrazinocarbonyl)oxirane], the IC50 [4] was > 2 µM.

For `CC(NC(=O)OCc1ccccc1)C(=O)NC(C)C(=O)NN(CC(N)=O)C(=O)C1OC1C(=O)NCCc1ccccc1` [12e, (2S,3S)-2-(2-Phenethylcarbamoyl)-3-(N^2-(N -benzyloxycarbonylalanylalanyl)-N^1-carbamoylmethylhydrazinocarbonyl)oxirane], the IC50 [4] was > 2 µM.

In the case of `CC(NC(=O)[C@@H]1O[C@H]1C(=O)N(CC(N)=O)NC(=O)[C@H](C)NC(=O)[C@H](C)NC(=O)OCc1ccccc1)C(=O)NCc1ccccc1` (stereo partly drawn) [12f, (2R,3R)-2-(1-Benzylcarbamoylethylcarbamoyl)-3-(N^2-(N-benzyloxycarbonylalanylalanyl)-N^1-carbamoylmethylhydrazinocarbonyl)oxirane], the IC50 [4] is reported as > 2 µM.

In the case of `CCOC(=O)[C@H]1O[C@@H]1C(=O)N(CC(N)=O)NC(=O)[C@H](C)NC(=O)[C@H](C)NC(=O)OCc1ccccc1` [Cbz-Ala-Ala-AAsn-(2S, 3S)-EP-COOEt, (2S,3S)-3-(N^2-(N-Benzyloxycarbonylalanylalanyl)-N^1-carbamoylmethylhydrazinocarbonyl)oxirane-2-carboxylic Acid Ethyl Ester], the “inhibition of porcine pepsin” value [5] is reported as “less than 20%”, the “inhibition of granzyme B” value [6] is reported as “no inhibition” and the “inhibition of HIV-1 protease” value [7] is reported as “less than 20%”. The “inhibition of SAP-2” value [8] was “less than 20%”, the kinact/KI [2] was 4 M⁻¹ s⁻¹ and the “inhibition of human cathepsin D” value [9] was “less than 20%”. For the same compound, the “inhibition of plasmepsin 2” value [10] was “less than 20%” and the kinact/KI [3] was 6 M⁻¹ s⁻¹.

In the case of “trans-3-(N-(N-tert-Butoxycarbonylnorvalyl)-N^1-phenylethylhydrazinocarbonyl)oxirane-2-carboxylic Acid Ethyl Ester [Boc-Nva-AHph-trans-EP-COOEt]”, the “kobs/[I] DPPI” value [1] is reported as 0.5 M⁻¹ s⁻¹, the “kobs/[I] papain” value [2] is reported as 1.4 M⁻¹ s⁻¹ and the “kobs/[I] cathepsin B” value [3] is reported as 2.7 M⁻¹ s⁻¹.

“trans-3-(N^2-Norvalyl)-N^1-phenylethylhydrazinocarbonyl)-1-(2-phenylethyl)oxirane Trifluoroacetate Salt [Nva-AHph-trans-EP-CH2CH2Ph.TFA]” was tested, and the “kobs/[I] DPPI” value [1] was 0.1 M⁻¹ s⁻¹.
